Data published in the Bradley open melting point set (2014).
Counter-ions that a name gives are not always drawn.

SMILES | melting point [°C]
N#Cc1cccc(C(F)(F)F)c1 [3-(trifluoromethyl)benzonitrile] | 16
O=C(O)Cc1cccc(C(F)(F)F)c1 [3-(trifluoromethyl)phenylacetic acid] | 78
Nc1cccc(O)c1 [3-Aminophenol] | 125
CC(=O)C=Cc1ccc([N+](=O)[O-])o1 [3-Buten-2-one, 4- (5-nitro-2-furanyl)-] | 194
C=CCCl [3-Chloroprop-1-ene] | -134
CC12CCC3C(CCC4CC(O)CCC43C)C1CCC2=O (stereo not drawn) [3-Hydroxyandrostan-17-one] | 174
COc1cccc(C(=O)O)c1 [3-Methoxybenzoic acid] | 106
Cc1cccc(C(=O)O)c1 [3-Methylbenzoic acid] | 112
CC(=O)OCCC(C)C [3-Methylbutyl acetate] | -100
O=C(O)CC[N+](=O)[O-] [3-Nitropropanoic acid] | 64
CC(C)CCCC(C)C1CCC2C3CC=C4CC(OCOc5ccc(Cl)cc5)CCC4(C)C3CCC12C (stereo not drawn) [3-[(4-chlorophenoxy)methoxy]cholest-5-ene] | 145
O=C1C=C(/C=C/c2ccccc2)CCC1 [3-[(E)-2-phenylethenyl]cyclohex-2-en-1-one] | 66
N#CC(=CN(O)c1ccccc1)c1ccccc1 [3-[hydroxy(phenyl)amino]-2-phenylprop-2-enenitrile] | 155
CC(=O)Oc1cccc(C(=O)O)c1C [3-acetoxy-2-methylbenzoic acid] | 150
CC(=O)Oc1cccc(C(C)=O)c1 [3-acetoxy_acetophenone] | 44
CC(=O)OC1(C(C)=O)CCC2(C)C(CCC3C4CCCC4(C)CCC32)C1 (stereo not drawn) [3-acetylandrostan-3-yl acetate] | 165
Nc1nc[nH]n1 [3-amino-1,2,4-triazole] | 151
Nc1cccnc1[N+](=O)[O-] [3-amino-2-nitropyridine] | 192
Nc1cc(C(=O)O)ccc1Cl [3-amino-4-chlorobenzoic acid] | 216
Nc1cc(C(=O)O)cc(C(F)(F)F)c1 [3-amino-5-(trifluoromethyl)benzoic acid] | 144
Cc1cc(N)n[nH]1 [3-amino-5-methyl-1h-pyrazole] | 45
CSc1[nH]nc(N)c1C#N [3-amino-5-methylthio-1h-pyrazole-4-carbonitrile] | 149
CC(C)(C)c1cc(N)n[nH]1 [3-amino-5-tert-butyl-1h-pyrazole] | 77
Nc1cc2ccccc2oc1=O [3-aminocoumarin] | 136

SMILES | melting point [°C]
NC(=O)c1sccc1N [3-aminothiophene-2-carboxamide] | 121
OB(O)c1cccc(OCc2ccccc2)c1 [3-benzyloxybenzeneboronic acid] | 123
COc1ccc(Br)c(OC)c1C(=O)O [3-bromo-2,6-dimethoxybenzoic acid] | 146
O=[N+]([O-])c1ncccc1Br [3-bromo-2-nitropyridine] | 104
Cc1ccc(N)cc1Br [3-bromo-4-methylaniline] | 27
O=[N+]([O-])c1cc[n+]([O-])cc1Br [3-bromo-4-nitropyridine n-oxide] | 153
O=C(O)c1cccc(Br)c1 [3-bromobenzoic acid] | 156
N#CCc1cccc(Br)c1 [3-bromophenylacetonitrile] | 27
CCCC(=O)c1cc2ccccc2oc1=O [3-butyrylcoumarin] | 94
O=C(O)c1cc(B(O)O)ccc1F [3-carboxy-4-fluorobenzeneboronic acid] | 218
O=C(O)c1cccc(Cl)c1[N+](=O)[O-] [3-chloro-2-nitrobenzoic acid] | 237
Nc1ccc(F)c(Cl)c1 [3-chloro-4-fluoroaniline] | 46
NC(=O)c1ccc(F)c(Cl)c1 [3-chloro-4-fluorobenzamide] | 146
O=C(O)c1cccc(Cl)c1 [3-chlorobenzoic acid] | 157
N#CCCCl [3-chloropropionitrile] | -50
N#Cc1cccc(C(=O)O)c1 [3-cyanobenzoic_acid] | 223
N#Cc1cccnc1 [3-cyanopyridine] | 50
CCC1(O)CCC2(C)C(CCC3C4CCC(=O)C4(C)CCC32)C1 (stereo not drawn) [3-ethyl-3-hydroxyandrostan-17-one] | 115
Cc1ccc2cc3c(ccc4ccccc43)c3c2c1CC3 [3-methylcholanthrene] | 180
Nc1cccc([N+](=O)[O-])c1 [3-nitroaniline] | 113
O=[N+]([O-])c1cccc(CCl)c1 [3-nitrobenzyl_chloride] | 47
Cc1cccc([N+](=O)[O-])c1 [3-nitrotoluene] | 16
N#CCC(=O)c1cccs1 [3-oxo-3-(2-thienyl)propionitrile] | 134
CC12CCC(=O)CC1CCC1C2CCC2(C)C(OC=O)CCC12 (stereo not drawn) [3-oxoandrostan-17-yl formate] | 125

The next lines start with the values.

melting point [°C] | SMILES
212 | O=Cc1ccc(B(O)O)cc1Cl [3-chloro-4-formylbenzeneboronic acid]
199 | Cc1ccc(C(=O)O)cc1Cl [3-chloro-4-methylbenzoic acid]
93 | CC(C)CCCC(C)C1CCC2C3CC=C4CC(Cl)CCC4(C)C3CCC12C (stereo not drawn) [3-chlorocholest-5-ene]
17 | O=C(O)C1CC=CCC1 (stereo not drawn) [3-cyclohexene-1-carboxylic acid]
144 | CCOc1cccc(B(O)O)c1 [3-ethoxybenzeneboronic acid]
-96 | CCc1cccc(C)c1 [3-ethyltoluene]
240 | O=Cc1ccc(B(O)O)cc1F [3-fluoro-4-formylbenzeneboronic acid]
238 | COc1ccc(B(O)O)cc1F [3-fluoro-4-methoxybenzeneboronic acid]
33 | Cc1ccc(N)cc1F [3-fluoro-4-methylaniline]
170 | Cc1ccc(C(=O)O)cc1F [3-fluoro-4-methylbenzoic acid]
104 | O=C(O)c1cc(F)cc(C(F)(F)F)c1 [3-fluoro-5-(trifluoromethyl)benzoic acid]
-55 | CCCC(=O)CC [3-hexanone]
202 | COc1ccc2oc(-c3cc(OC)c(OC)cc3OC)c(O)c(=O)c2c1 [3-hydroxy-2',4',5',6-tetramethoxyflavone]
234 | O=C(O)c1ccc([N+](=O)[O-])c(O)c1 [3-hydroxy-4-nitrobenzoic acid]
127 | O=C1OC(c2ccccc2)(c2ccccc2)C=C1O [3-hydroxy-5,5-diphenylfuran-2(5H)-one]
137 | COc1ccc2c(c1)C(O)OC2=O (stereo not drawn) [3-hydroxy-5-methoxy-2-benzofuran-1(3H)-one]
175 | COc1cccc2oc(-c3ccccc3)c(O)c(=O)c12 [3-hydroxy-5-methoxyflavone]
80 | N#Cc1cccc(O)c1 [3-hydroxybenzonitrile]
38 | CC(O)CC(=O)O (stereo not drawn) [3-hydroxybutyric acid]
-99 | C=CCI [3-iodo-1-propene]
23 | Nc1cccc(I)c1 [3-iodoaniline]
187 | O=C(O)c1cccc(I)c1 [3-iodobenzoic acid]
130 | O=C(O)Cc1cccc(I)c1 [3-iodophenylacetic acid]
-27 | Cc1cccc(I)c1 [3-iodotoluene]
18 | O=C(O)CCS [3-mercaptopropionic acid]

melting point [°C] | SMILES
193 | COc1cc(B(O)O)ccc1C [3-methoxy-4-methylbenzeneboronic acid]
52 | COc1ccc2c(c1)CC2=O [3-methoxybicyclo[4.2.0]octa-1,3,5-trien-7-one]
2 | CC1=CC(=O)CC1 [3-methyl-2-cyclopenten-1-one]
85 | CC1c2ccccc2C(=O)C1c1ccccc1 (stereo not drawn) [3-methyl-2-phenyl-2,3-dihydro-1H-inden-1-one]
140 | Cc1ccc[nH]c1=O [3-methyl-2-pyridone]
-76 | CCCCCCCC(C)CC (stereo not drawn) [3-methyldecane]
-121 | CCCCC(C)CC (stereo not drawn) [3-methylheptane]
96 | Cc1c[nH]c2ccccc12 [3-methylindole]
89 | Cc1cc2ccccc2[n+]([O-])c1 [3-methylquinoline n-oxide]
208 | CCCC1=NNC(=O)C1 [3-n-propyl-2-pyrazolin-5-one]
31 | O=[N+]([O-])c1cccc(CO)c1 [3-nitrobenzyl alcohol]
62 | O=[N+]([O-])c1cccc(-c2ccccc2)c1 [3-nitrobiphenyl]
119 | O=C(O)Cc1cccc([N+](=O)[O-])c1 [3-nitrophenylacetic acid]
212 | O=C(O)c1cccc([N+](=O)[O-])c1C(=O)O [3-nitrophthalic acid]
128 | O=C(OC1OC(=O)c2ccccc21)c1ccccc1 (stereo not drawn) [3-oxo-1,3-dihydro-2-benzofuran-1-yl benzoate]
152 | O=c1cc(-c2ccccc2)[nH]o1 [3-phenyl-5-isoxazolone]
49 | O=C(O)CCc1ccccc1 [3-phenylpropanoic_acid]
48.5 | O=C(O)CCc1ccccc1 [3-phenylpropionic acid]
152 | O=C(O)CCN1C(=O)c2ccccc2C1=O [3-phthalimidopropionic acid]
38 | Cc1ccc[n+]([O-])c1 [3-picoline n-oxide]
-18 | Cc1cccnc1 [3-picoline]
211 | O=C(O)COc1cccnc1 [3-pyridyloxyacetic acid]
65 | O=S1(=O)CC=CC1 [3-sulfolene]
45 | CC(C)(C)c1cccc(O)c1 [3-tert-butylphenol]
146 | COc1ccccc1-c1ccc(C=C(C(C)=O)C(C)=O)o1 [3-{[5-(2-Methoxyphenyl)-2-furyl]methylene}pentane-2,4-dione]
